Assay results taken from patent US20240165120A1, “TREATING CANCER IN PATIENT HAVING CO-OCCURRING GENETIC ALTERATION IN FGFR2 AND A CANCER DRIVER GENE” (TAIHO PHARMACEUTICAL CO., LTD., priority 2021, published 2024).

Experiments:
[1] = Crystal form oral absorbability; conditions: crystal forms defined by XRPD peaks
Crystal form stability = conditions: crystal forms defined by XRPD peaks
advanced iCCA = conditions: 1st line; patients with advanced iCCA; cited from earlier work

Molecule	oral absorbability [1]	stability (Crystal form stability)	overall survival (advanced iCCA) [year]
C=CC(=O)N1CC[C@H](n2nc(C#Cc3cc(OC)cc(OC)c3)c3c(N)ncnc32)C1 [Compound (1), (S)-1-[(3)-[4-amino-3-[(3,5-dimethoxyphenyl)ethynyl]-1H-pyrazolo[3,4-d]pyrimidin-1-yl]-1-pyrrolidinyl]-2-propen-1-one]	excellent oral absorbability	good stability	
Gemcitabine-cisplatin			1
